Measured values taken from patent publication US20190010380A1, “METHOD FOR CONTROLLING BACTERIA IN FORMATIONS USING MOLYBDATE” (priority 2017, published 2019).
Values joined by “and” are separate entries in the source; they are usually repeats but may differ in a detail not shown here. Equal entries are not always repeated.

Assays:
SRB [1] = experiment: Hydrogen sulfide inhibition in actual produced water from the Eagle Ford shale diluted to 3%, spiked with SRB; type: cell-based, sulfate-reducing bacteria (SRB)
Description: (§1) Hydrogen sulfide inhibition was tested in mock-produced water approximating water used in hydraulic fracturing operations and was made to a total dissolved solids concentration of 3% with a mixture of instant ocean and NaCl salts. The water was supplemented with nutrients and sulfate to allow SRB to metabolize and create H2S. The water was spiked with SRB and then treated with the various treatment conditions noted below in Table 3 and sealed. Treatment conditions were: Control: No biocide or nitrate.
(§2) 250 ppm 12.3 Glut/Quat Biocide: a mixture of glutaraldehyde and a quarternary ammonia compound was prepared NRB Program: (480 ppm Ca(NO3)2 with 1 ppm live NRB culture. 20 ppm, 40 ppm, 50 ppm, 60 ppm, 80 ppm, 100 ppm, 120 ppm, 150 ppm, and 200 ppm molybdate concentration-.
(§3) H2S was measured at intervals using H2S detecting Draeger tubes. Dissolved H2S was released into the gas phase with the addition of hydrochloric acid so that H2S could be measured with the Draeger tubes to get a complete reading of all H2S produced during the course of the example.
Samples were prepared in accordance with Example 1, except that actual produced water sourced from the Eagle Ford shale that was diluted to 3% using deionized water was used in the samples.

SRB [2] = experiment: Hydrogen sulfide inhibition in mock-produced water spiked with SRB (Draeger tubes); type: cell-based, sulfate-reducing bacteria (SRB); conditions: for Total H2S: mock-produced water
Description: as §1, §2, §3

[O]=[Mo](=[O])([O-])[O-] [MoO4, molybdate]
Total H2S (SRB [1]; 20 ppm MoO4): 3188 ppm | Total H2S (SRB [1]; 50 ppm MoO4): 234 ppm | Total H2S (SRB [1]; 80 ppm MoO4): 172 ppm | Total H2S (SRB [1]; 100 ppm MoO4): 107 ppm | Total H2S (SRB [1]; 150 ppm MoO4): 160 ppm | Total H2S (SRB [1]; 200 ppm MoO4): 110 ppm | Comparison with Glut/Quat biocide and NRB treatment (SRB [1]; concentrations of 50 ppm and above): competitive with other proven treatments | Effect on H2S formation (SRB [1]; molybdate alone, even at lower concentrations): caused a strong reduction in H2S formation | Comparison with Glut/Quat biocide and NRB treatment (SRB [2]; mock produced water, concentrations of 150 ppm and above): competitive with other proven treatments | Effect on H2S formation (SRB [2]; mock produced water, molybdate alone, even at lower concentrations): caused a reduction in H2S formation | Total H2S (SRB [2]; 20 ppm MoO4): 1974 ppm | Total H2S (SRB [2]; 40 ppm MoO4): 1066 ppm | Total H2S (SRB [2]; 50 ppm MoO4): 2262 ppm and 1536 ppm | Total H2S (SRB [2]; 60 ppm MoO4): 1846 ppm | Total H2S (SRB [2]; 80 ppm MoO4): 1866 ppm | Total H2S (SRB [2]; 100 ppm MoO4): 738 ppm | Total H2S (SRB [2]; 120 ppm MoO4): 890 ppm | Total H2S (SRB [2]; 150 ppm MoO4): 176 ppm | Total H2S (SRB [2]; 200 ppm MoO4): 40 ppm
